These results are taken from a melting point compilation (Tetko et al.; mined from patent text by program, amines drawn as free bases though some values may be those of a salt).

For orientation: melting point means the temperature of the solid-liquid transition.

With `CCC1(c2cccs2)OCC(=O)Nc2ccc(-c3coc(C#N)c3)cc21` (stereo not given), the melting point was 99 to 100 °C.

In the case of `CCCCc1c(/C=C/C(=O)Oc2ccc([N+](=O)[O-])cc2)ccc2c(OC)cccc12`, the melting point lay within 115 to 116 °C. Under `CCCCCC(O)C=CC1C(O)CC(O)C1CCCCCCC(=O)O` (stereo not given) stands 98 to 100 °C; under `CCCCCC(C)C(C)c1cc(O)c(CN2CCN(C)CC2)c(O)c1` (stereo not given), 129 to 133 °C. `CC(CCCC(=O)CCCC(C)(C(=O)O)c1ccccc1)(C(=O)O)c1ccccc1` (stereo not given) registered a melting point of 44 to 46 °C. To `COc1ccc(Nc2nc(Nc3cc4c(cc3OC)CNC(CC3CC3)C(=O)N4C)ncc2Cl)c(-n2cccn2)c1` (stereo not given) belongs 94 to 96 °C.

In the case of `CC(=O)Nc1nc(-c2ccc(C(C)(C)C)cc2)c(-c2ccncc2)s1`, the melting point was 280 to 281 °C. To `COc1ccccc1-n1c(=O)[nH]c2c(C(N)=O)nc(-c3ccc4nc(C)[nH]c4c3)nc21` belongs 270 °C. To `OCCOCCNc1ncncc1Cc1ccccc1` belongs 86 to 87 °C; to `CC(CNC(=O)Cc1ccccc1)Oc1ccccc1` (stereo not given), 94 to 96 °C. Under `CC(C)(CO)c1cc(C#N)ccc1O` stands 129 to 130 °C. Consider `CC1CCC(Nc2ccc(Br)cc2)c2ncc(C(=O)O)c(=O)n21` (single isomer, unassigned; (-)), for which the melting point lay in the range of 210 to 211 °C. Under `CCN(c1nc(C)cc(C)n1)c1ccc(N(C)C(C)=O)cc1SC` stands 158 to 160 °C. Under `O=S1(=O)N=C(NC2CCN(Cc3ccccc3)C2)Nc2ccc(Cl)cc21` (stereo not given) stands 208 to 210 °C.

The molecule `COc1cc(Nc2nccc(-c3ccccc3)n2)cc(OC)c1OC` displayed a melting point of 187 °C. To `COc1ccc(CNc2cc(-c3cc4cc(F)c(F)cc4[nH]3)ccc2OC)cc1` belongs 173 to 175 °C. To `Cc1cc2c(c(C)c1O)C(C)(C)C(C)C2C` (stereo not given) belongs 55 to 57 °C.

`O=C(NOC(=O)c1ccc(Cl)cc1)OCc1ccccc1` yielded a melting point of 97 °C.

In turn, `O=C(CCCCCOc1ccccc1OCc1ccccc1)C(F)(F)F` gave a melting point of 31 to 32 °C. To `N#CCCCCCn1nc(-c2c(-c3ccccc3)nn3ccccc23)ccc1=O` belongs 120 to 122 °C. To `CC(O)c1cccc(-c2ccc3nc(-c4ccc(Cl)cc4)cn3c2)c1F` (stereo not given) belongs 193 to 195 °C; to `O=C(Cn1nc(Br)nc1Br)N1CCC(c2nc(C3=NOC(c4c(F)cccc4F)C3)cs2)CC1` (stereo not given), 185 to 189 °C; to `O=C(O)C1(c2ccc(CN3CCN(c4ccc(F)cc4)CC3)cc2)CC1`, 74 to 77 °C. In turn, `O=C(c1ccccc1)c1ccc(NC(=O)c2cc(Cl)ccc2Cl)cc1` returned a melting point of 150 to 153 °C. Under `CCOC(=O)c1[nH]c2ccccc2c1Br` stands 150 to 152 °C; under `CCOC(=O)c1cnn2c1c(Nc1ccccc1)nc1ccccc12`, 145 to 147 °C; under `CCNC(=O)Cn1cccc(O)c1=O`, 214 to 215 °C. Regarding `ClCc1coc(Cc2ccccc2)n1`, the melting point is 31 to 32 °C.

`CC(C)[C@H](NC(=O)OC(C)(C)C)[C@H]1CCn2c(c(C3=C(c4cn(-c5ccccc5)c5ccccc45)C(=O)NC3=O)c3ccccc32)C1` registered a melting point of 165 to 168 °C. Regarding `COC(=O)c1cc2c(Br)cccc2n1C`, the melting point is 85 to 86 °C.

Molecule `CCCCCCNC(=O)NOCC(O)CN1CCCCC1` (stereo not given) registered a melting point of 50 to 52 °C. `COc1ccc(C(=O)Nc2c(C)c(C)c3c(c2C)C(c2ccc(C(C)C)cc2)C(C)(C)O3)cc1` (stereo not given) showed a melting point of 202 to 205 °C.

Molecule `CN(C(=S)Nc1nc(OCC(F)(F)F)cc(OCC(F)(F)F)n1)c1ccc(C(F)(F)F)cc1` showed a melting point of 109 to 111 °C. Under `CC(C)(C)C(=O)Nc1ccccc1C(c1ccc(O)cc1)c1ccc(O)cc1` stands 259 to 262 °C; under `CCCN(CCC)C(=O)CNc1nc(-c2ccccc2)nc(CC)c1C`, 83 to 84 °C.
